Patent US10183953B2, “Substituted 2-azabicycles and their use as orexin receptor modulators” (Janssen Pharmaceutica NV, priority 2013, dated 2019)

Tests used:
human orexin 2 receptor = human orexin 2 receptor (Homo sapiens (Human), UniProt O43614); test: Human orexin 2 receptor radioligand binding ([3H]-EMPA, HEK293 membranes); details: human OX2 receptor binding; averages from between 2-20 runs; read-out: hOX2 Ki
Experimental: (§1) The in vitro affinity of the compounds of the invention for the rat/human orexin 1 and human orexin 2 receptors was determined by competitive radioligand binding using [^3H]
(§2) Data are analyzed using pc-Sandy macro and graphed on Graphpad Prism 5. For analysis, each concentration point is averaged from triplicate values and the averaged values are plotted on Graphpad Prism. The IC50 was determined by applying the following equation (GraphPad Prism 5.0, SanDiego) for one site competition where X=log (concentration) and Y=specific binding. […] Graphpad Prism calculates Ki value from IC50 and the pre-determined Kd values for [^3H]-(1-(5-(2-fluoro-phenyl)-2-methyl-thiazol-4-yl)-1-((S)-2-(5-phenyl-(1,3,4)oxadiazol-2-ylmethyl)-pyrrolidin-1-yl)-methanone) and [3H]-EMPA. […]
HEK293 stably expressing human orexin 2 receptor (Genebank accession number NM_001526) were grown to confluency in DMEM (Hyclone, cat #SH30022), 10% FBS, 1×Pen/Strep, 1× NaPyruvate, 10 mM HEPES, 600 ug/ml G418 media on 150 cm^2 tissue culture plates, washed with 5 mM EDTA in PBS (HyClone Dulbecco's Phosphate Buffered Saline 1× with Calcium and Magnesium, Cat #SH30264.01, hereafter referred to simply as PBS) and scraped into 50 ml tubes. […] Total and nonspecific binding was determined in the absence and presence of 10 μM almorexant. […]

human orexin 1 receptor = human orexin 1 receptor (Homo sapiens (Human), UniProt O43613); test: Human orexin 1 receptor radioligand binding (competitive, CHO membranes); details: human OX1 receptor binding; averages from between 2-20 runs; read-out: hOX1 Ki
Experimental: as §1, §2
(§3) After centrifugation (2K×G, 5 min at 4° C.), the supernatant was aspirated and the pellets frozen and stored at −80° C. […] Total and nonspecific binding was determined in the absence and presence of 10 μM almorexant. […] Plates were dried in 55° C. oven for 60 min, scintillation fluid was added, and the radioactivity was counted on a Topcount (Packard).

rat orexin 1 receptor = rat orexin 1 receptor (Rattus norvegicus, UniProt P56718); test: Rat orexin 1 receptor radioligand binding (competitive, HEK293 membranes); details: rat OX1 receptor binding; averages from between 2-20 runs; read-out: rOX1 Ki
Experimental: as §1, §2, §3

human orexin 2 receptor, sequence (O43614 whole entry): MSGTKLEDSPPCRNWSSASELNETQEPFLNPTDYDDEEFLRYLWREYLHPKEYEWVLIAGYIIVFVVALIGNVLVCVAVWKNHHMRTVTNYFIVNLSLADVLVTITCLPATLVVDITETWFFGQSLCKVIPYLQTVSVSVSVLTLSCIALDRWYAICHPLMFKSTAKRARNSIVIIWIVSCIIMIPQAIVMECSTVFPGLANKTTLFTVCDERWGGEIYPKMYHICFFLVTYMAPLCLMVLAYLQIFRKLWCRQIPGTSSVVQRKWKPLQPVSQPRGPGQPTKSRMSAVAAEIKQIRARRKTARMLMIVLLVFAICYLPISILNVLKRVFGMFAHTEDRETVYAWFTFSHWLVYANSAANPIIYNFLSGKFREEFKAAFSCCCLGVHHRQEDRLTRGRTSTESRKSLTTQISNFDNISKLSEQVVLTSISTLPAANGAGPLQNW
human orexin 1 receptor, sequence (O43613 whole entry): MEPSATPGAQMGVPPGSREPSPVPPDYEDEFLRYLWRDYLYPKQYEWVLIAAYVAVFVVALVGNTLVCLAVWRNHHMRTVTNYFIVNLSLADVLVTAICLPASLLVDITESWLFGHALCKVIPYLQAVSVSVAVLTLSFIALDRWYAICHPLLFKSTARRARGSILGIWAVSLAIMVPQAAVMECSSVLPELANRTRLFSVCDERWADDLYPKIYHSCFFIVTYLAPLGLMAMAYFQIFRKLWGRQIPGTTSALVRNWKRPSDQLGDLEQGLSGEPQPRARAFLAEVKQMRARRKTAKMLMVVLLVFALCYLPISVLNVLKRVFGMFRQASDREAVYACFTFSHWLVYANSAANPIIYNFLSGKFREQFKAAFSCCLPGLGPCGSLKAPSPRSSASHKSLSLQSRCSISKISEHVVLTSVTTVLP

A Ki (human orexin 2 receptor) of 456 nM, a Ki (human orexin 1 receptor) of 7 nM and a Ki (rat orexin 1 receptor) of 9 nM were found for `O=C(c1cccc(F)c1-c1ncccn1)N1C[C@@H]2CC[C@H]1[C@H](Nc1cnc(C(F)(F)F)cn1)C2` [Example 80, (3-fluoro-2-(pyrimidin-2-yl)phenyl)((1S,4R,6R)-6-((5-(trifluoromethyl)pyrazin-2-yl)amino)-2-azabicyclo[2.2.2]octan-2-yl)methanone] in this work.
